# Source: article PMC10113987, “A tool for nuclear imaging of the SARS-CoV-2 entry receptor: molecular model and preclinical development of ACE2-selective radiopeptides” (EJNMMI Research, 2023)
# Positions of bridges follow the written chain, without caps; N, C: chain ends. Residues, ends and D or L forms follow the SMILES beside them. *: point of attachment. DOTA = O=C(O)CN1CCN(CC(=O)O)CCN(CC(=O)*)CCN(CC(=O)O)CC1; NODAGA = O=C(O)CN1CCN(CC(=O)O)CCN(C(CCC(=O)*)C(=O)O)CC1; Ahx = NCCCCCC(=O)O
# Assays:
# [1] = Blood plasma protein binding, human plasma (ultrafiltration); assay type: in vitro ADME; settings: human, plasma, 30 min, 37 °C, read-out: Fraction bound to blood plasma proteins
# Description: (§1) The radiopeptides (0.3 MBq; 15 pmol) were incubated in human or murine blood plasma (150 μL) for 30 min at 37 °C followed by cooling on ice, addition of ice-cold PBS (150 μL) and transfer of the samples to amicon filter devices (Amicon Ultra, 0.5 mL, Merck Millipore; cutoff 10 kDa). The filter ensured the retention of the radiopeptides bound to mouse plasma proteins or human plasma proteins during filtration (14,000 rcf, 30 min at 4 °C). Afterward, the filter inserts were inverted and centrifuged again (200 rcf, 3 min) to recover the protein-bound fraction of the radiopeptides. The activities of the free radiopeptides in the filtrate, as well as in the filter insert and the plasma protein-bound radiopeptides (Abound), were counted for activity separately in a γ-counter. The total activity (Atotal) was determined as the sum of the activities in the filtrate, filter insert, and protein-bound fractions. The percentage of radiopeptide bound to mouse serum albumin (MSA) and human serum albumin (HSA) was calculated as Abound/Atotal*100. The results were presented as average ± SD of three independent experiments (Additional file 1).
# (§2) Methods: The detailed methods are reported in the main article. Control experiments were performed by incubation of the respective radiopeptides in phosphate-buffered saline (PBS) instead of blood plasma, followed by ultracentrifugation using Amicon filters.
# [2] = test system: human blood plasma proteins; test: as above; assay type: in vitro ADME; settings: 30 min, 37 °C
# Description: as §1, §2
# [3] = target: T1, ACE (Homo sapiens, UniProt P12821); test: ACE-binding affinity (saturation binding on HEK-ACE cells); settings: on ice, 1 h
# T1 construct: host or cells: HEK-293
# T1 sequence (P12821 30-1306): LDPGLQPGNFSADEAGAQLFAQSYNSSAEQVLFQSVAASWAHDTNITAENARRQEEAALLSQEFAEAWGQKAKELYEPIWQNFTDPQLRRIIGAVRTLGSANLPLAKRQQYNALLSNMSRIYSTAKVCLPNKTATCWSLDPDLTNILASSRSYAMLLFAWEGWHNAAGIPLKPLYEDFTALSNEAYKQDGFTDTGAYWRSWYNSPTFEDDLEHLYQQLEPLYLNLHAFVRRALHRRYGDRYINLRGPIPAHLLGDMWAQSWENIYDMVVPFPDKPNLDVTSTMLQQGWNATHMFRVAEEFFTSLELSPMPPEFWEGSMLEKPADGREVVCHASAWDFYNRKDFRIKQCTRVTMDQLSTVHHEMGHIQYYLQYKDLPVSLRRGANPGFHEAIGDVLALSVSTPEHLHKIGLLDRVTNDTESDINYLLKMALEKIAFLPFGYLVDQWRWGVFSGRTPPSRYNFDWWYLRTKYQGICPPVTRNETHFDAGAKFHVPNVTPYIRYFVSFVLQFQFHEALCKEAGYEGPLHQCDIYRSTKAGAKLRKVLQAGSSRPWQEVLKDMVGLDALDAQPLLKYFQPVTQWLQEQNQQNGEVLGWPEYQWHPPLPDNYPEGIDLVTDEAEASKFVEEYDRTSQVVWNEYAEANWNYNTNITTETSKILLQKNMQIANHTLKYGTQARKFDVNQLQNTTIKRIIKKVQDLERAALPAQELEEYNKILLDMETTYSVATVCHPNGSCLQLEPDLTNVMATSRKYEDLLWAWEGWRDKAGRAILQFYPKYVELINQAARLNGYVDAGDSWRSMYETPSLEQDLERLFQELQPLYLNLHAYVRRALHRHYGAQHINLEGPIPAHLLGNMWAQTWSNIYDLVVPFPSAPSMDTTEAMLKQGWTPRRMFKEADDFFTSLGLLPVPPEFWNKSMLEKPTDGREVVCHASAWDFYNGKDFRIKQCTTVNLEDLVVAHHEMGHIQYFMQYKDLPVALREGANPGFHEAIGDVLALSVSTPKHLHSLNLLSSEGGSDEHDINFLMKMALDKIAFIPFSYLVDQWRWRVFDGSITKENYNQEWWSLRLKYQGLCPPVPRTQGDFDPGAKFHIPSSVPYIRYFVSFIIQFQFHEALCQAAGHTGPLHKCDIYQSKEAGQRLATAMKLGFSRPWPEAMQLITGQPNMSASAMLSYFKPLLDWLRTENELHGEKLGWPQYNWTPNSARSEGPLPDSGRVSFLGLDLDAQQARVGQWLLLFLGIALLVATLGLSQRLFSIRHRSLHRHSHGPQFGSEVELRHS
# Description: (§3) In order to determine the KD values of the DX600-based radiopeptides and [^67Ga]Ga-DOTA-BPP9a, HEK-ACE2 and HEK-ACE cells were seeded in 48-well-plates allowing adhesion and growth overnight. The cell samples were incubated with increasing concentrations (1‒2000 nM) of the radiopeptides (5 MBq/nmol) on ice. Some of the cell samples were co-incubated with an excess of cyclo-DX600 or lisinopril (20 µM, 10 nmol) to block ACE2 or ACE, respectively, enabling the determination of non-specific binding (Additional file 1). After 1 h incubation, the cells were rinsed with PBS and lysed with NaOH (1 M, 600 µL) to count the activity in a γ-counter. The KD values were determined by plotting specific binding (total binding minus unspecific binding) against the molar concentration of the added radiopeptide. A nonlinear regression analysis was performed using GraphPad Prism software (version 8.3.1).
# [4] = target: T2, ACE2 (Homo sapiens, UniProt Q9BYF1); test: ACE2-binding affinity (saturation binding on HEK-ACE2 cells); settings: on ice, 1 h
# T2 construct: host or cells: HEK-293
# T2 sequence (Q9BYF1 18-805): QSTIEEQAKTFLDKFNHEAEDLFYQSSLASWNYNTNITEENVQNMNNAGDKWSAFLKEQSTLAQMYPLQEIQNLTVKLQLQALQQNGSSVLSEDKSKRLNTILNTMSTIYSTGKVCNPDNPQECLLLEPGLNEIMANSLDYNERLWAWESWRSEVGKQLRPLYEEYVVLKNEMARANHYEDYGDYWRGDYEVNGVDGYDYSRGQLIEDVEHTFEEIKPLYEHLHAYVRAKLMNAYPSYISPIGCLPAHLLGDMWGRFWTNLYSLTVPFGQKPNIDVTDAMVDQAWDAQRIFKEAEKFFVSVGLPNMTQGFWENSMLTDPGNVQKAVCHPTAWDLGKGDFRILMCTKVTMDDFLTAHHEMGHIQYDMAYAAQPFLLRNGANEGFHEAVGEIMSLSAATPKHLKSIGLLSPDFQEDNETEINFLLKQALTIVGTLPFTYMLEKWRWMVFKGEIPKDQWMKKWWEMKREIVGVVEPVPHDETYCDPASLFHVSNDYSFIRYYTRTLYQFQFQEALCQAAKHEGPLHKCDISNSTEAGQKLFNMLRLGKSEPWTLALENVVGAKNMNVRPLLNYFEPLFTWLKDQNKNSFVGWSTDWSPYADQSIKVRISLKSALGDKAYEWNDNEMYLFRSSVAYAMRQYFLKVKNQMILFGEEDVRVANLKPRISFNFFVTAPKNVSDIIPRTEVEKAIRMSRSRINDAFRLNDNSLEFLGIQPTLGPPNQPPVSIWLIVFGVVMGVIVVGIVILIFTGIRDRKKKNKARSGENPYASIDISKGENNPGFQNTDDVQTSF
# Description: as §3
# [5] = test system: HEK-ACE2 cells; test: Cell uptake and internalization in HEK-ACE2 cells; assay type: cell-based, human
# Description: HEK-293 cells transfected with ACE2 or ACE, referred to as HEK-ACE2 and HEK-ACE, respectively, were obtained from Innoprot (Innovative Technologies in Biological Systems S.L. Bizkaia, Spain). The cells were cultured in Dulbecco’s Modified Eagle Medium (DMEM) supplemented with nonessential amino acids, fetal calf serum and antibiotics. Hygromycin B was used to maintain the expression of ACE2 and ACE, respectively. The HEK cells were cultured under standard conditions at 37 °C and 5% CO2 and subcultured using PBS/EDTA and trypsin.
# The uptake and internalization of [^67Ga]Ga-DOTA-DX600, [^67Ga]Ga-NODAGA-DX600, [^67Ga]Ga-HBED-CC-DX600 and [^67Ga]Ga-DOTA-BPP9a were determined using HEK-ACE2 and HEK-ACE cells. The cells were seeded in poly-D-lysine-coated 12-well plates allowing cell adhesion and growth overnight. After rinsing the cells with PBS, they were incubated with the respective radiopeptide (25 µL, 1.9 pmol, 38 kBq). In some cell samples, the radiopeptides were co-incubated with excess of cyclo-DX600 (2 µM) or lisinopril (4 µM) to block ACE2 or ACE, respectively. After incubation of the cells for 1 h or 3 h, they were rinsed with PBS or acidic stripping buffer (glycine buffer with NaCl 0.9%, pH 2.8) to determine the total uptake and internalization of the radiopeptides, respectively. Cell samples were lysed using NaOH (1 M, 1 mL) before counting the activity in a γ-counter. The results were expressed as a percentage of total added activity and normalized to an average content of ~ 0.3 mg protein per well.
# Methods: The methods for cell uptake studies are reported in the main article. The cyclo-DX600 (ACE2 inhibitor) and lisinopril (ACE inhibitor) were applied at a final concentration of 2 µM and 4 µM, respectively.
smiles,measurement,setting,value
"CC[C@H](C)[C@H](NC(=O)[C@H](CCC(N)=O)NC(=O)[C@@H]1CCCN1C(=O)[C@H](CCCNC(=N)N)NC(=O)[C@@H]1CCCN1C(=O)[C@H](Cc1c[nH]c2ccccc12)NC(=O)[C@H](CCC(=O)O)NC(=O)CCCCCNC(=O)CCCCCNC(=O)CN1CCN(CC(=O)O)CCN(CC(=O)O)CCN(CC(=O)O)CC1)C(=O)N1CCC[C@H]1C(=O)N1CCC[C@H]1C(=O)O [[^67Ga]Ga-DOTA-BPP9a, metal not drawn] ({DOTA-Ahx-Ahx}-EWPRPQIPP-OH)",fraction unbound,[1],0.5
same,Fraction bound to blood plasma proteins,[2],~ 49%
same,Kd,[3],0.693 ± 0.354 µM
"CC(=O)N[C@@H](CCCCNC(=O)CN1CCN(CC(=O)O)CCN(CC(=O)O)CCN(CC(=O)O)CC1)C(=O)NCC(=O)N[C@@H](CC(=O)O)C(=O)N[C@@H](Cc1ccc(O)cc1)C(=O)N[C@@H](CO)C(=O)N[C@@H](Cc1c[nH]cn1)C(=O)N[C@H]1CSSC[C@@H](C(=O)N[C@H](C(=O)N[C@@H](Cc2ccc(O)cc2)C(=O)N2CCC[C@H]2C(=O)N[C@@H](CC(=O)O)C(=O)N2CCC[C@H]2C(=O)N[C@@H](CCC(=O)O)C(=O)NCC(=O)NCC(=O)NCC(N)=O)[C@@H](C)O)NC(=O)[C@H](CCCCN)NC(=O)[C@H](Cc2c[nH]c3ccccc23)NC(=O)[C@H](Cc2c[nH]c3ccccc23)NC(=O)[C@@H]2CCCN2C(=O)[C@H](Cc2ccc(O)cc2)NC(=O)[C@H](Cc2ccc(O)cc2)NC(=O)[C@H](CCCNC(=N)N)NC(=O)[C@H](CC(C)C)NC(=O)[C@@H]2CCCN2C(=O)[C@H](CO)NC1=O [[^67Ga]Ga-DOTA-DX600, metal not drawn] (Ac-K(DOTA)GDYSHCSPLRYYPWWKCTYPDPEGGG-NH2; disulfide 7-18)",Kd,[4],0.098 ± 0.01 µM
"CC(=O)N[C@@H](CCCCNC(=O)CCC(C(=O)O)N1CCN(CC(=O)O)CCN(CC(=O)O)CC1)C(=O)NCC(=O)N[C@@H](CC(=O)O)C(=O)N[C@@H](Cc1ccc(O)cc1)C(=O)N[C@@H](CO)C(=O)N[C@@H](Cc1c[nH]cn1)C(=O)N[C@H]1CSSC[C@@H](C(=O)N[C@H](C(=O)N[C@@H](Cc2ccc(O)cc2)C(=O)N2CCC[C@H]2C(=O)N[C@@H](CC(=O)O)C(=O)N2CCC[C@H]2C(=O)N[C@@H](CCC(=O)O)C(=O)NCC(=O)NCC(=O)NCC(N)=O)[C@@H](C)O)NC(=O)[C@H](CCCCN)NC(=O)[C@H](Cc2c[nH]c3ccccc23)NC(=O)[C@H](Cc2c[nH]c3ccccc23)NC(=O)[C@@H]2CCCN2C(=O)[C@H](Cc2ccc(O)cc2)NC(=O)[C@H](Cc2ccc(O)cc2)NC(=O)[C@H](CCCNC(=N)N)NC(=O)[C@H](CC(C)C)NC(=O)[C@@H]2CCCN2C(=O)[C@H](CO)NC1=O (stereo partly shown) [[^67Ga]Ga-NODAGA-DX600, metal not drawn] (Ac-K(NODAGA)GDYSHCSPLRYYPWWKCTYPDPEGGG-NH2; disulfide 7-18)",Internalized fraction in HEK-ACE2 cells,"[5]; 3 h incubation, acidic stripping buffer",8.2 ± 0.3%
same,Uptake in HEK-ACE2 cells,"[5]; 3 h incubation, percentage of total added activity",40 ± 3%
same,Uptake in HEK-ACE2 cells in the presence of excess cyclo-DX600 (unspecifically bound),[5]; co-incubation with cyclo-DX600 2 µM,3.1 ± 1.1%
